Results taken from ChEMBL document CHEMBL3727358, “Inhibitors of inducible form of 6-phosphofructose-2-kinase” (2014).

Legend:
[1] = molecular target: T1, 6-phosphofructo-2-kinase/fructose-2,6-bisphosphatase 3 (Homo sapiens, UniProt Q16875); assay: Inhibition of iPFK2 (unknown origin) assessed as reduction in enzyme-mediated fructose-6-phosphate phosphorylation by measuring NADH absorbance pre-incubated for 10 mins before ATP/substrate addition followed by incubation for 1 hr by UV-Visible spectrometry based iPFK-2/PPI-PFK coupled enzyme assay
T1 sequence (Q16875 whole entry): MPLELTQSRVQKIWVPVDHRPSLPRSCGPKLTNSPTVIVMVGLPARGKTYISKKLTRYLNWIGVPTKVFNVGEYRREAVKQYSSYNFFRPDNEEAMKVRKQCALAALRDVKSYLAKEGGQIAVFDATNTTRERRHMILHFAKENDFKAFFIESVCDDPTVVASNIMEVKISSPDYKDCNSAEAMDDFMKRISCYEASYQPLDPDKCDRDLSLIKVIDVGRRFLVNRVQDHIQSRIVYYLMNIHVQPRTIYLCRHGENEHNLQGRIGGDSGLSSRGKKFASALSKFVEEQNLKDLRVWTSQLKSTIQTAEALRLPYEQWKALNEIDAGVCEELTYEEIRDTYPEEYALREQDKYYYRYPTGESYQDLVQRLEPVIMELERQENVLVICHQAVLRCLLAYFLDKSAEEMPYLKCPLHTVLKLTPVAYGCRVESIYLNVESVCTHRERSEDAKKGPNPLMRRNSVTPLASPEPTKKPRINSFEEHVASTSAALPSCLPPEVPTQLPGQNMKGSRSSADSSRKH

[2] = molecular target: T1, 6-phosphofructo-2-kinase/fructose-2,6-bisphosphatase 3; assay: Inhibition of iPFK2 (unknown origin) assessed as reduction in enzyme-mediated fructose-6-phosphate phosphorylation by measuring ATP consumption incubated for 3 hrs by luciferase-luciferin-coupled chemiluminescence assay

SMILES | IC50 [1] [nM] | IC50 [2] [nM]
COc1cccc([C@H](C)Nc2cc(-c3ccc4c(c3)CCO4)nc(C)n2)c1 | 500 | 500
Cc1nc(NCc2cc(O)ccc2F)cc(-c2ccc3ncsc3c2)n1 | 500 | 500
Cc1nc(NC(C)c2cccc(NC(=O)c3ccn[nH]3)c2)cc(-c2ccc3ncsc3c2)n1 (stereo unspecified) | 500 | > 1000
COc1ccc(Br)c(CNc2cc(-c3ccc4ncsc4c3)nc(C)n2)c1 | 500 | > 1000
Cc1nc(NC(C)c2cccc(-c3cnn(C)c3)c2)cc(-c2ccc(C(F)(F)F)cc2)n1 (stereo unspecified) | > 1000 | > 1000
Cc1cc(-c2cc(N[C@@H]3CCCc4ccccc43)nc(C)n2)ccn1 | > 1000 | > 1000
Cc1nc(NC(C)c2cccc(-c3ccc[nH]3)c2)cc(-c2ccc3ncsc3c2)n1 (stereo unspecified) | 500 | > 1000
C#CCOc1cccc(C(C)Nc2cc(-c3ccc4ncsc4c3)nc(C)n2)c1 (stereo unspecified) | 500 | 500
Cc1nc(NC(C)c2cccc(OCc3nc(C(=O)O)co3)c2)cc(-c2ccc3ncsc3c2)n1 (stereo unspecified) | > 1000 | 500
Cc1nc(NC(C)c2cccc(OCC(F)(F)F)c2)cc(-c2ccc3ncsc3c2)n1 (stereo unspecified) | 500 | > 1000
Cc1nc(NC(C)c2cccc(OCC(=O)NC3CCCCC3)c2)cc(-c2ccc3ncsc3c2)n1 (stereo unspecified) | 500 | 500
COc1cccc([C@H](C)Nc2cc(-c3cc4ccccc4o3)nc(C)n2)c1 | > 1000 | > 1000
Cc1nc(NCc2ccccc2F)cc(-c2ccc3ncsc3c2)n1 | > 1000 | 500
COCCNS(=O)(=O)c1cccc(C(C)Nc2cc(-c3ccc4ncsc4c3)nc(C)n2)c1 (stereo unspecified) | > 1000 | > 1000
Cc1nc(NC(C)c2ccc(F)c(Br)c2)cc(-c2ccc3occ(C)c3c2)n1 (stereo unspecified) | 500 | > 1000
COc1cccc(-c2cc(NC(C)c3cccc(O)c3)nc(C)n2)c1F (stereo unspecified) | > 1000 | > 1000
Cc1nc(NC(C)c2cccc(NC(=O)NC(N)=O)c2)cc(-c2ccc3ncsc3c2)n1 (stereo unspecified) | 500 | > 1000
COc1cccc([C@H](C)Nc2cc(-c3cc4ccccc4n3C)nc(C)n2)c1 | 500 | 500
Cc1nc(N[C@@H]2CCCc3ccccc32)cc(-c2cc3ccccc3s2)n1 | 500 | > 1000
Cc1nc(NC(C)c2cccc(-c3c(C)noc3C)c2)cc(-c2ccc3ncsc3c2)n1 (stereo unspecified) | 500 | > 1000
Cc1nc(NC(C)c2cccc(N)c2)cc(-c2ccc3ncsc3c2)n1 (stereo unspecified) | 500 | > 1000
Cc1nc(NC(C)c2cccc(-c3cccc(F)c3)c2)cc(-c2ccc3ncsc3c2)n1 (stereo unspecified) | > 1000 | > 1000
Cc1nc(NC(C)c2cccc(OCC3CCCN(C(=O)OC(C)(C)C)C3)c2)cc(-c2ccc3ncsc3c2)n1 (stereo unspecified) | > 1000 | > 1000
Cc1nc(NC(C)c2cccc([N+](=O)[O-])c2)cc(-c2ccc3ncsc3c2)n1 (stereo unspecified) | 500 | 500
Cc1nc(N[C@@H]2CCCc3ccccc32)cc(-c2ccc(C#N)cc2)n1 | > 1000 | > 1000
Cc1nc(NC(C)c2cccc(NS(=O)(=O)c3cn(C)cn3)c2)cc(-c2ccc3ncsc3c2)n1 (stereo unspecified) | > 1000 | > 1000

SMILES | IC50 [1] [nM] | IC50 [2] [nM]
Cc1nc(NC(C)c2ccc(F)c(-c3cnn(C)c3)c2)cc(-c2ccc3ncsc3c2)n1 (stereo unspecified) | 500 | > 1000
Cc1nc(NC(C)c2cccc(OCC(=O)Nc3ccccc3)c2)cc(-c2ccc3ncsc3c2)n1 (stereo unspecified) | > 1000 | > 1000
Cc1nc(NC(C)c2cccc(OCC#N)c2)cc(-c2ccc3ccn(C)c3c2)n1 (stereo unspecified) | 500 | 500
COc1ccc(-c2cccc(C(C)Nc3cc(-c4ccc5ncsc5c4)nc(C)n3)c2)cn1 (stereo unspecified) | 500 | > 1000
Cc1nc(NC(C)c2cccc(OCCS(C)(=O)=O)c2)cc(-c2ccc3ncsc3c2)n1 (stereo unspecified) | > 1000 | > 1000
Cc1nc(N[C@@H]2CCCc3ccccc32)cc(-c2cnc3ccccc3c2)n1 | > 1000 | 500
Cc1nc(NC(C)c2cccc(OCc3cc(C)on3)c2)cc(-c2ccc3ncsc3c2)n1 (stereo unspecified) | 500 | 500
COC(=O)COc1ccc(F)c(CNc2cc(-c3ccc4ncsc4c3)nc(C)n2)c1 | > 1000 | > 1000
COc1cccc(-c2cc(N[C@@H]3CCCc4ccccc43)nc(C)n2)c1F | 500 | > 1000
Cc1nc(NC(C)c2cccc(OCC3CCN(C(=O)OC(C)(C)C)CC3)c2)cc(-c2ccc3ncsc3c2)n1 (stereo unspecified) | > 1000 | > 1000
Cc1nc(NC(C)c2cccc(OCC3CCCN(C(=O)OC(C)(C)C)C3)c2)cc(-c2ccc3occ(C)c3c2)n1 (stereo unspecified) | 500 | > 1000
COc1ccc(F)c(CNc2cc(-c3ccc4ncsc4c3)nc(C)n2)c1 | > 1000 | 500
Cc1nc(N[C@@H]2CCCc3ccccc32)cc(-c2ccc3cnn(C)c3c2)n1 | 500 | 500
COc1ccc(-c2cc(NC(C)c3cccc(-c4cnn(C)c4)c3)nc(C)n2)cc1 (stereo unspecified) | 500 | 500
Cc1cc(COc2ccc(F)c(CNc3cc(-c4ccc5ncsc5c4)nc(C)n3)c2)n(C)n1 | > 1000 | > 1000
CCOC(=O)c1cncc(-c2cccc(C(C)Nc3cc(-c4ccc5ncsc5c4)nc(C)n3)c2)c1 (stereo unspecified) | 500 | > 1000
Cc1nc(N[C@@H]2CCOc3ccccc32)cc(-c2ccc3ncsc3c2)n1 | > 1000 | > 1000
Cc1nc(NC(C)c2cccc(OC(C)C(N)=O)c2)cc(-c2ccc3ncsc3c2)n1 (stereo unspecified) | 500 | > 1000
Cc1nc(NC(C)c2cccc(NC=O)c2)cc(-c2ccc3ncsc3c2)n1 (stereo unspecified) | > 1000 | > 1000
Cc1nc(NCC2CCCN(C(=O)C3CCCC3)C2)cc(-c2ccc3ncsc3c2)n1 (stereo unspecified) | > 1000 | 500
Cc1nc(NC(C)c2ccc(Cl)c(O)c2)cc(-c2ccc3occ(C)c3c2)n1 (stereo unspecified) | 500 | > 1000
Cc1ccc(OCc2noc(COc3cccc(C(C)Nc4cc(-c5ccc6ncsc6c5)nc(C)n4)c3)n2)cc1 (stereo unspecified) | > 1000 | > 1000
Cc1nc(NC(C)c2cccc(NC(N)=O)c2)cc(-c2ccc3ncsc3c2)n1 (stereo unspecified) | > 1000 | > 1000
Cc1nc(NC(C)c2cccc(-c3cnn(C)c3)c2)cc(-c2ccc(F)c(C)c2)n1 (stereo unspecified) | 500 | > 1000
Cc1nc(NC(C)c2cccc(-c3cnn(C)c3)c2)cc(-c2ccc(Cl)cc2Cl)n1 (stereo unspecified) | 500 | 500
Cc1nc(NC(C)c2cccc(S(=O)(=O)NCCO)c2)cc(-c2ccc3ncsc3c2)n1 (stereo unspecified) | > 1000 | 500

SMILES | IC50 [1] [nM] | IC50 [2] [nM]
Cc1nc(NC(C)c2cccc(-c3cnn(C)c3)c2)cc(-c2ccccc2C)n1 (stereo unspecified) | > 1000 | > 1000
Cc1nc(N[C@@H](C)c2ccccc2)cc(-c2ccc3ncsc3c2)n1 | > 1000 | > 1000
Cc1nc(NC(C)c2cccc(-c3ccoc3)c2)cc(-c2ccc3ncsc3c2)n1 (stereo unspecified) | > 1000 | > 1000
Cc1nc(N[C@@H]2CCCc3ccccc32)cc(-c2ccc(C)c(O)c2)n1 | 500 | 500
Cc1nc(NCC2CCCNC2)cc(-c2ccc3ncsc3c2)n1 (stereo unspecified) | > 1000 | > 1000
CCN(CC)C(=O)COc1cccc(C(C)Nc2cc(-c3cccc(OC)c3F)nc(C)n2)c1 (stereo unspecified) | > 1000 | > 1000
Cc1nc(N[C@@H]2CCCc3ccccc32)cc(-c2cc3ccccc3[nH]2)n1 | > 1000 | > 1000
Cc1nc(NC(C)c2cccc(-c3ccc(N(C)C)nc3)c2)cc(-c2ccc3ncsc3c2)n1 (stereo unspecified) | 500 | 500
Cc1nc(NC(C)c2cccc(-c3ccsc3)c2)cc(-c2ccc3ncsc3c2)n1 (stereo unspecified) | > 1000 | > 1000
Cc1ccc(COc2cccc(C(C)Nc3cc(-c4ccc5ncsc5c4)nc(C)n3)c2)cc1 (stereo unspecified) | > 1000 | > 1000
Cc1cc(COc2ccc(F)c(C(C)Nc3cc(-c4ccc5ncsc5c4)nc(C)n3)c2)n(C)n1 (stereo unspecified) | > 1000 | > 1000
Cc1nc(N[C@H](C)c2cccc(-n3cnnn3)c2)cc(-c2ccc3occ(C)c3c2)n1 | > 1000 | 500
Cc1nc(NC(C)c2cccc(OCC3CCNCC3)c2)cc(-c2ccc3ncsc3c2)n1 (stereo unspecified) | 500 | 500
Cc1nc(N[C@H](C)c2cccc(O)c2)cc(-c2ccc3ncsc3c2)n1 | > 1000 | > 1000
COC(=O)c1coc(COc2cccc(C(C)Nc3cc(-c4ccc5ncsc5c4)nc(C)n3)c2)n1 (stereo unspecified) | > 1000 | > 1000
Cc1nc(NC(C)c2ccccc2C)cc(-c2ccc3occ(C)c3c2)n1 (stereo unspecified) | > 1000 | > 1000
Cc1nc(NC(C)c2cccc(NC(=O)c3ccn(C)n3)c2)cc(-c2ccc3ncsc3c2)n1 (stereo unspecified) | 500 | > 1000
Cc1nc(NCC2CCCN(C(=O)C3(C)CC3)C2)cc(-c2ccc3ncsc3c2)n1 (stereo unspecified) | > 1000 | 500
Cc1nc(NC(C)c2cccc(-c3cnn(C)c3)c2)cc(-c2ccc(C(C)C)cc2)n1 (stereo unspecified) | 500 | > 1000
Cc1nc(NC(C)c2cccc(OCCn3cccn3)c2)cc(-c2ccc3ncsc3c2)n1 (stereo unspecified) | 500 | > 1000
COc1cccc([C@H](C)Nc2cc(-c3cnc4ccn(C)c4c3)nc(C)n2)c1 | > 1000 | > 1000
Cc1nc(NCc2cc(Br)ccc2F)cc(-c2ccc3ncsc3c2)n1 | > 1000 | > 1000
Cc1nc(N[C@H](C)c2ccc(F)c(-c3cnn(C)c3)c2)cc(-c2ccc3occ(C)c3c2)n1 | 500 | > 1000
COc1cc(-c2cc(NC(C)c3cccc(O)c3)nc(C)n2)ccc1C (stereo unspecified) | 500 | > 1000
Cc1nc(NC(C)c2cccc(OCC(=O)C3CC3)c2)cc(-c2ccc3ncsc3c2)n1 (stereo unspecified) | > 1000 | > 1000
COC(=O)COc1cccc(C(C)Nc2cc(-c3ccc4ncsc4c3)nc(C)n2)c1 (stereo unspecified) | > 1000 | > 1000
